Data as given in BindingDB's records for doi:10.1016/s0960-894x(01)00264-5 (Shionogi, 2001).

Target: Chymotrypsinogen A (Bos taurus) (UniProt P00766)
Test: Compound was evaluated for its inhibitory activity against bovine pancreatic alpha-chymotrypsin

- IC50: 2.4 nM
SMILES: Cc1ccc(N2C(=O)N(c3ccc(C)cc3)C2=O)cc1 [1,3-Di-p-tolyl-[1,3]diazetidine-2,4-dione]
